≈ marks a conversion by molar mass, not a printed value.
Tests used:
Type in all cases: cell-based
Staph. aureus UC-76 = assay: in vitro antibacterial activity, microtitration dilution (MIC), Staph. aureus UC-76; details: Staphylococcus aureus, UC76, read-out: minimum inhibiting concentration (MIC)
Excerpt: (§1) The in vitro antibacterial activity, is obtained by the microtitration dilution method as described in Heifetz, et al., Antimicr. Agents & Chemother., 6, 124 (1974), which is incorporated herein by reference.
(§2) By use of the above methods, the following minimum inhibiting concentration values (MICs in μg/mL), PD50 's in mg/kg, no effect phototoxicity dose in mg/kg and the cytotoxicity IC50 in μg/mL were obtained for representative enantiomers of the invention and compounds of the prior art as shown in the table.

Esch. coli Vogel = assay: in vitro antibacterial activity, microtitration dilution (MIC), Esch. coli Vogel; details: Escherichia coli, read-out: minimum inhibiting concentration (MIC)
Excerpt: as §1, §2

Strep. pheumoniae SV-1 = assay: in vitro antibacterial activity, microtitration dilution (MIC), Strep. pneumoniae SV-1; details: Streptococcus pneumoniae, SV1, read-out: minimum inhibiting concentration (MIC)
Excerpt: as §1, §2

Strep. pyogenes C-203 = assay: in vitro antibacterial activity, microtitration dilution (MIC), Strep. pyogenes C-203; details: Streptococcus pyogenes, C203, read-out: minimum inhibiting concentration (MIC)
Excerpt: as §1, §2

Klebs. pneumoniae MGH-2 = assay: in vitro antibacterial activity, microtitration dilution (MIC), Klebs. pneumoniae MGH-2; details: Klebsiella pneumoniae, MGH2, read-out: minimum inhibiting concentration (MIC)
Excerpt: as §1, §2

Ent. cloacae MA2646 = assay: in vitro antibacterial activity, microtitration dilution (MIC), Ent. cloacae MA2646; details: Enterobacter cloacae, read-out: minimum inhibiting concentration (MIC)
Excerpt: as §1, §2

Strep. faecalis MGH-2 = assay: in vitro antibacterial activity, microtitration dilution (MIC), Strep. faecalis MGH-2; details: Enterococcus faecalis, MGH2, read-out: minimum inhibiting concentration (MIC)
Excerpt: as §1, §2

Prot. rettgeri M 1771 = assay: in vitro antibacterial activity, microtitration dilution (MIC), Prot. rettgeri M 1771; details: Providencia rettgeri, M1771, read-out: minimum inhibiting concentration (MIC)
Excerpt: as §1, §2

Staph. aureus H 228 = assay: in vitro antibacterial activity, microtitration dilution (MIC), Staph. aureus H 228; details: Staphylococcus aureus, H228, read-out: minimum inhibiting concentration (MIC)
Excerpt: as §1, §2

Pseud. aeruginosa UI-18 = assay: in vitro antibacterial activity, microtitration dilution (MIC), Pseud. aeruginosa UI-18; details: Pseudomonas aeruginosa, UI18, read-out: minimum inhibiting concentration (MIC)
Excerpt: as §1, §2

MIC (Staph. aureus UC-76) [µg/mL]	MIC (Esch. coli Vogel) [µg/mL]	MIC (Strep. pheumoniae SV-1) [µg/mL]	MIC (Strep. pyogenes C-203) [µg/mL]	MIC (Klebs. pneumoniae MGH-2) [µg/mL]	MIC (Ent. cloacae MA2646) [µg/mL]	MIC (Strep. faecalis MGH-2) [µg/mL]	MIC (Prot. rettgeri M 1771) [µg/mL]	MIC (Staph. aureus H 228) [µg/mL]	MIC (Pseud. aeruginosa UI-18) [µg/mL]	SMILES
≤ 0.003	0.1 (≈ 0.24 µM)	≤ 0.003	≤ 0.003	0.2 (≈ 0.479 µM)	0.1 (≈ 0.24 µM)	0.025 (≈ 0.0599 µM)	0.4 (≈ 0.958 µM)	0.006 (≈ 0.0144 µM)	1.6 (≈ 3.83 µM)	CN[C@@H](C)[C@@H]1CCN(c2c(F)c(C)c3c(=O)c(C(=O)O)cn(C4CC4)c3c2OC)C1 [Example 61, 3R,1S-1-cyclopropyl-6-fluoro-7-[3-(1-N-methylaminoethyl)-1-pyrrolidinyl]-5-methyl-8-methoxy-1,4-dihydro-4-oxo-3-quinolinecarboxylic acid]
0.013 (≈ 0.0292 µM)	0.2 (≈ 0.449 µM)	0.013 (≈ 0.0292 µM)	0.013 (≈ 0.0292 µM)	0.4 (≈ 0.898 µM)	0.2 (≈ 0.449 µM)	0.1 (≈ 0.224 µM)	0.4 (≈ 0.898 µM)	0.025 (≈ 0.0561 µM)	1.6 (≈ 3.59 µM)	Cc1c(F)c(N2CC[C@@H]([C@@H](C)N)C2)cc2c1c(=O)c(C(=O)O)cn2-c1ccc(F)cc1F [Example 46, 3R,1R-7-[3-(1-aminoethyl)-1-pyrrolidinyl]-1-(2,4-difluorophenyl)-6-fluoro-1,4-dihydro-5-methyl-4-oxo-3-quinolinecarboxylic acid]
0.006 (≈ 0.0154 µM)	0.1 (≈ 0.257 µM)	0.013 (≈ 0.0335 µM)	0.025 (≈ 0.0644 µM)	0.2 (≈ 0.515 µM)	0.1 (≈ 0.257 µM)	0.025 (≈ 0.0644 µM)	0.4 (≈ 1.03 µM)	0.05 (≈ 0.129 µM)	1.6 (≈ 4.12 µM)	C[C@H]([C@H]1CCN(c2nc3c(cc2F)c(=O)c(C(=O)O)cn3C2CC2)C1)N(C)C [Example 69, 3S,1R-1-cyclopropyl-7-[3-[1-(dimethylamino)ethyl]-1-pyrrolidinyl]-6-fluoro-1,4-dihydro-4-oxo-1,8-naphthyridine-3-carboxylic acid]
0.003 (≈ 0.00765 µM)	0.013 (≈ 0.0331 µM)	0.003 (≈ 0.00765 µM)	0.003 (≈ 0.00765 µM)	0.013 (≈ 0.0331 µM)	0.013 (≈ 0.0331 µM)	0.003 (≈ 0.00765 µM)	0.025 (≈ 0.0637 µM)	0.003 (≈ 0.00765 µM)	0.4 (≈ 1.02 µM)	C[C@H](N)[C@@H]1CCN(c2c(F)c(N)c3c(=O)c(C(=O)O)cn(C4CC4)c3c2F)C1 [Example 58, 3R,1S-5-amino-7-[3-(1-aminoethyl)-1-pyrrolidinyl]-1-cyclopropyl-6,8-difluoro-1,4-dihydro-4-oxo-3-quinolinecarboxylic acid]
0.013 (≈ 0.0275 µM)	0.4 (≈ 0.845 µM)	0.013 (≈ 0.0275 µM)	0.013 (≈ 0.0275 µM)	0.8 (≈ 1.69 µM)	0.4 (≈ 0.845 µM)	0.1 (≈ 0.211 µM)	1.6 (≈ 3.38 µM)	0.025 (≈ 0.0528 µM)	3.1 (≈ 6.55 µM)	CCN[C@@H](C)[C@@H]1CCN(c2cc3c(c(C)c2F)c(=O)c(C(=O)O)cn3-c2ccc(F)cc2F)C1 [Example 54, 3R,1S-7-[3-(1-N-ethylaminoethyl)-1-pyrrolidinyl]-1-(2,4-difluorophenyl)-6-fluoro-1,4-dihydro-5-methyl-4-oxo-3-quinolinecarboxylic acid]
0.013 (≈ 0.0324 µM)	0.4 (≈ 0.996 µM)	0.05 (≈ 0.125 µM)	0.05 (≈ 0.125 µM)	0.4 (≈ 0.996 µM)	0.4 (≈ 0.996 µM)	0.05 (≈ 0.125 µM)	1.6 (≈ 3.99 µM)	0.05 (≈ 0.125 µM)	3.1 (≈ 7.72 µM)	CCN[C@@H](C)[C@@H]1CCN(c2cc3c(c(C)c2F)c(=O)c(C(=O)O)cn3C2CC2)C1 [Example 52, 3R,1S-1-cyclopropyl-7-[3-(1-N-ethylaminoethyl)-1-pyrrolidinyl]-6-fluoro-1,4-dihydro-5-methyl-4-oxo-3-quinolinecarboxylic acid]
≤ 0.003	0.1 (≈ 0.248 µM)	0.006 (≈ 0.0149 µM)	0.006 (≈ 0.0149 µM)	0.2 (≈ 0.496 µM)	0.2 (≈ 0.496 µM)	0.025 (≈ 0.062 µM)	0.2 (≈ 0.496 µM)	0.013 (≈ 0.0322 µM)	1.6 (≈ 3.97 µM)	CCOc1c(N2CC[C@@H]([C@H](C)N)C2)c(F)cc2c(=O)c(C(=O)O)cn(C3CC3)c12 [Example 49, 3R,1S-7-[3-(1-aminoethyl)-1-pyrrolidinyl]-1-cyclopropyl-8-ethoxy-6-fluoro-1,4-dihydro-4-oxo-3-quinolinecarboxylic acid]
0.05 (≈ 0.12 µM)	0.8 (≈ 1.92 µM)	0.2 (≈ 0.479 µM)	0.2 (≈ 0.479 µM)	1.6 (≈ 3.83 µM)	0.8 (≈ 1.92 µM)	0.4 (≈ 0.958 µM)	3.1 (≈ 7.43 µM)	0.2 (≈ 0.479 µM)	6.3 (≈ 15.1 µM)	CCN[C@@H](C)[C@H]1CCN(c2c(F)cc3c(=O)c(C(=O)O)cn(C4CC4)c3c2OC)C1 [Example 20, 3S,1S-1-cyclopropyl-6-fluoro-7-[3-(1-N-ethylaminoethyl)1-pyrrolidinyl]-8-methoxy-1,4-dihydro-4-oxo-3quinolinecarboxylic acid]

— patent publication US5563155A, “Individual stereosiomers of 7-[3-(aminoalkyl)-1-pyrrolidinyl]-quinolones and naphthyridones as antibacterial agents” (Warner-Lambert Company, priority 1995, dated 1996)
